Data reported in ChEMBL document CHEMBL5291721, “A preclinical secondary pharmacology resource illuminates target-adverse drug reaction associations of marketed drugs” (Nat Commun, 2023).
Where a SMILES comes first, the peptide text is derived from it. [ ]: non-standard residue; d: D form. pGlu = O=C1CC[C@@H](C(=O)O)N1; Thz = O=C(O)[C@@H]1CSCN1

How the values were obtained:
Androgen receptor [1] = target: T1, Androgen receptor (Rattus norvegicus, UniProt P15207)
T1 sequence (P15207 whole entry): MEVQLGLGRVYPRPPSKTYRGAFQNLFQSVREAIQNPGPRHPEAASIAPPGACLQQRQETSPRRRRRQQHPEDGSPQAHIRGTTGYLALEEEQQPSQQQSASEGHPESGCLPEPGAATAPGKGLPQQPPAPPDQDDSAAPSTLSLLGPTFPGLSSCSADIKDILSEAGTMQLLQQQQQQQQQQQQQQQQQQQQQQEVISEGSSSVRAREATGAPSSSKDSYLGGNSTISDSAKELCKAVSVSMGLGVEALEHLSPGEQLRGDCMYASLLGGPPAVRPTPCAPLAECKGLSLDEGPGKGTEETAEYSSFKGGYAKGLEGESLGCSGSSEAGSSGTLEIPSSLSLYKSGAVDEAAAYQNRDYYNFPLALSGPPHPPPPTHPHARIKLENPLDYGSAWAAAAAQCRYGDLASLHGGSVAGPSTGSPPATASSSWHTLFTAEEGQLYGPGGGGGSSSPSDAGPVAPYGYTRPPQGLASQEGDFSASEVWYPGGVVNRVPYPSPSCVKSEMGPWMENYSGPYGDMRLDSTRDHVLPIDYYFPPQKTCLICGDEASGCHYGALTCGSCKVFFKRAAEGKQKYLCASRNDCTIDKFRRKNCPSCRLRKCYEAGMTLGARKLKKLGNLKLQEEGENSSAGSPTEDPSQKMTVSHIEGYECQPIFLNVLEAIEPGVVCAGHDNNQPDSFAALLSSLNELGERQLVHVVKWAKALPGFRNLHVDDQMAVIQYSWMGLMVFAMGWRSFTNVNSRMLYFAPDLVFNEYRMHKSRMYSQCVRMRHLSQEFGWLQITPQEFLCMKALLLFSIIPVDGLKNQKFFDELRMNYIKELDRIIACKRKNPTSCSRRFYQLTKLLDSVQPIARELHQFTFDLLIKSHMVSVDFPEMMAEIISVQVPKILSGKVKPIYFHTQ

Histamine H1 receptor [2] = target: T2, Histamine H1 receptor (Homo sapiens, UniProt P35367); type: functional, cell-based
T2 sequence (P35367 whole entry): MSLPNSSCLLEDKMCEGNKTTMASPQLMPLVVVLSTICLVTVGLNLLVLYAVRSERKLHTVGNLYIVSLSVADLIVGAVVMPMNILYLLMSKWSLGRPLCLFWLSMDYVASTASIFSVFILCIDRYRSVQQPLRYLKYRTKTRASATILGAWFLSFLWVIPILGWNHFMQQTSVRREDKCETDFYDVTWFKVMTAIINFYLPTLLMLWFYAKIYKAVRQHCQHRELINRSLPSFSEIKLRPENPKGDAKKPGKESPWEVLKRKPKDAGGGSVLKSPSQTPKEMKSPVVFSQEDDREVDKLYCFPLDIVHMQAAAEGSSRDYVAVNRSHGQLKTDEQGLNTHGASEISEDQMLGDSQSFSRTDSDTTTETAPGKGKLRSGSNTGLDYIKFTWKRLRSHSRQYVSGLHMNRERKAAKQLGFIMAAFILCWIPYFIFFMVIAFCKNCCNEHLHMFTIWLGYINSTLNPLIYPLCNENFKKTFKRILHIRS

Histamine H1 receptor [3] = target: T2, Histamine H1 receptor; type: functional, cell-based; remark: listed apart in the source
D(4) dopamine receptor = target: T3, D(4) dopamine receptor (Homo sapiens, UniProt P21917)
T3 sequence (P21917 whole entry): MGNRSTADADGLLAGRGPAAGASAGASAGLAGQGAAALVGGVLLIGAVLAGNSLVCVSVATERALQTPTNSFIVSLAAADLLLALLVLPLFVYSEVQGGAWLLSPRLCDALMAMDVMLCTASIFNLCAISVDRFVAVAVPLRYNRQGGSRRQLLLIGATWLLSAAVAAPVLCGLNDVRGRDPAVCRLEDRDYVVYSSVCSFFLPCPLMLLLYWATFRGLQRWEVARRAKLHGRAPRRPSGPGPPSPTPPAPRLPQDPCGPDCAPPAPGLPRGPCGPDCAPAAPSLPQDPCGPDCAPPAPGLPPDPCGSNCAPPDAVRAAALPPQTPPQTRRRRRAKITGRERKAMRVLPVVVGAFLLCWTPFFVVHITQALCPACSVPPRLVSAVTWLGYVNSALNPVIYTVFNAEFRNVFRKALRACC

Glucagon receptor = Glucagon receptor (Homo sapiens, UniProt P47871)
Chain of Glucagon receptor (P47871 whole entry): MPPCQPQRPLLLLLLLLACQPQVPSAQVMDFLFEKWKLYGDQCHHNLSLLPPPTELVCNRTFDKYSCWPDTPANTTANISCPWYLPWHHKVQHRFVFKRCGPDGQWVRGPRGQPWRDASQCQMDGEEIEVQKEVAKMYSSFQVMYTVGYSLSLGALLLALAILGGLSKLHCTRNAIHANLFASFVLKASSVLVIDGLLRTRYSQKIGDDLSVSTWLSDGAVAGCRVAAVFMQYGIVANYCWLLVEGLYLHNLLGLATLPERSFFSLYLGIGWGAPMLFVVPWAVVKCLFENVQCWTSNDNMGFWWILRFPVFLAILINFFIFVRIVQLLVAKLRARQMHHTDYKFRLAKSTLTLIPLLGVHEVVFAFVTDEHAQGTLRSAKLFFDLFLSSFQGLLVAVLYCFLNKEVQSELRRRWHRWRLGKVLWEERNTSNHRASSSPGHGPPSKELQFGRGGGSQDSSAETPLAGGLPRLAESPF

Progesterone receptor = target: T4, Progesterone receptor (Homo sapiens, UniProt P06401)
T4 sequence (P06401 whole entry): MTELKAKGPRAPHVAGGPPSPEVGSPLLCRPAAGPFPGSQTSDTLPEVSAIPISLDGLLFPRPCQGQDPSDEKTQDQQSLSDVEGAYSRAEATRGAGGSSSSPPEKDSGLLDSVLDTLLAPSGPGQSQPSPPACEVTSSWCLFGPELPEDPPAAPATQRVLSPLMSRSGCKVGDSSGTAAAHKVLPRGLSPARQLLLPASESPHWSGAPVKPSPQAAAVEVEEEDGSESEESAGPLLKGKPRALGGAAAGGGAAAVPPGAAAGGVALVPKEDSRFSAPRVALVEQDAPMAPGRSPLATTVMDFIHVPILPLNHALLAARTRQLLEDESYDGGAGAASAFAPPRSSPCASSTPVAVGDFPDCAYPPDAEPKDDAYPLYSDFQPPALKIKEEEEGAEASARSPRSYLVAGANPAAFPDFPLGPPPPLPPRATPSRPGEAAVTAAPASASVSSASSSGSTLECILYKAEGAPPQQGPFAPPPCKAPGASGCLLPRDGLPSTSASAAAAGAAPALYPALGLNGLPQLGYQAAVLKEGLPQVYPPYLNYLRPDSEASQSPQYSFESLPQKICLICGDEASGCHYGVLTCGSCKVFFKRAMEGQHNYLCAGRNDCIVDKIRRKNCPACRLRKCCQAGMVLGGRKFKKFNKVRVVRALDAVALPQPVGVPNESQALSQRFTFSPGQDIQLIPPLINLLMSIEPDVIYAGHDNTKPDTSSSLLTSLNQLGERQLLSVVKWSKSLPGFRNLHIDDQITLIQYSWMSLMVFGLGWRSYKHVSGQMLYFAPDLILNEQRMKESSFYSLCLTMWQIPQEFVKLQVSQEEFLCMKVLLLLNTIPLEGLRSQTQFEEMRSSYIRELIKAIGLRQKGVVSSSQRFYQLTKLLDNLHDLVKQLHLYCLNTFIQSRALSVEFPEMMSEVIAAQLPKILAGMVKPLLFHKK

Androgen receptor [4] = target: T1, Androgen receptor; type: functional
Androgen receptor [5] = target: T1, Androgen receptor; type: functional; remark: listed apart in the source
Histamine H2 receptor = Histamine H2 receptor (Homo sapiens, UniProt P25021)
Chain of Histamine H2 receptor (P25021 whole entry): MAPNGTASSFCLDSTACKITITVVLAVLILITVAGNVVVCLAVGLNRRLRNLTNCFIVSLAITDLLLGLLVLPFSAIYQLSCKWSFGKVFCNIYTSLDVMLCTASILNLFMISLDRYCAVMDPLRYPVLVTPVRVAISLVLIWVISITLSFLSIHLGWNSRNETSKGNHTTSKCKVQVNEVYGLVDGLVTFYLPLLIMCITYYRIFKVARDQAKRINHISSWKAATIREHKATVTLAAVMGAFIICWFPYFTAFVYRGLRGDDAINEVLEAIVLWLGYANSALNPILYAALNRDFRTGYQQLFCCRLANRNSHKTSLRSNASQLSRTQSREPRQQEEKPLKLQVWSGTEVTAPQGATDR

[6] = target: T5, Alpha-2A adrenergic receptor (Homo sapiens, UniProt P08913)
T5 sequence (P08913 whole entry): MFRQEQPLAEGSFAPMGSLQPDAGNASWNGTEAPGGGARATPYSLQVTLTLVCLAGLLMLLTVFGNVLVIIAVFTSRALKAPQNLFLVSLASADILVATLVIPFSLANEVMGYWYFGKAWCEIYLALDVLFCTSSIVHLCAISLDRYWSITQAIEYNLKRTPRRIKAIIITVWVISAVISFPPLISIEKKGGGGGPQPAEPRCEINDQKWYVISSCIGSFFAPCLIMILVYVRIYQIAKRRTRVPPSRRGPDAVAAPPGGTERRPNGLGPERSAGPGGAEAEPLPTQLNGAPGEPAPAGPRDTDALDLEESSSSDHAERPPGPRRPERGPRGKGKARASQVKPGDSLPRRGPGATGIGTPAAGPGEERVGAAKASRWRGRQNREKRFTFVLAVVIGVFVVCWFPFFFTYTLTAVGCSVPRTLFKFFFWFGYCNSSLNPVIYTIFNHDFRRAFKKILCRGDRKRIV
Note: assay procedure not described here.

## O=C(c1cc(Cc2n[nH]c(=O)c3ccccc23)ccc1F)N1CCN(C(=O)C2CC2)CC1 [OLAPARIB]
Androgen receptor [1]
  AC50: > 30 µM

## O=c1[nH]c2ccccc2n1CCCN1CCN(C(c2ccccc2)c2ccccc2)CC1 [OXATOMIDE]
Histamine H1 receptor [2]
  AC50: > 30 µM
Histamine H1 receptor [3]
  AC50: 0.69 µM

## COc1cc2[nH]c(C)c(CCN3CCN(c4ccccc4)CC3)c2cc1OC [OXYPERTINE]
Histamine H1 receptor [2]
  AC50: > 30 µM
Histamine H1 receptor [3]
  AC50: 0.645 µM

## Fc1ccc([C@@H]2CCNC[C@H]2COc2ccc3c(c2)OCO3)cc1 [PAROXETINE]
D(4) dopamine receptor
  AC50: > 10 µM
Glucagon receptor
  AC50: > 30 µM
Progesterone receptor
  AC50: > 30 µM
Androgen receptor [1]
  AC50: > 30 µM

## c1ccc(C2(N3CCCCC3)CCCCC2)cc1 [PHENCYCLIDINE]
Androgen receptor [4]
  AC50: > 30 µM
Androgen receptor [5]
  AC50: > 30 µM

## OC[C@H]1O[C@@H](Oc2cc(O)cc(/C=C/c3ccc(O)cc3)c2)[C@H](O)[C@@H](O)[C@@H]1O [PICEID]
Androgen receptor [4]
  AC50: > 30 µM
Androgen receptor [5]
  AC50: > 30 µM

## O=C1CC[C@@H](C(=O)N2CSC[C@H]2C(=O)O)N1 [PIDOTIMOD] ([pGlu]-[Thz]-OH)
Androgen receptor [4]
  AC50: > 30 µM
Androgen receptor [5]
  AC50: > 30 µM

## COc1cc(C(=O)OCc2cccc(COC(=O)c3cc(OC)c(OC)c(OC)c3)n2)cc(OC)c1OC [PIROZADIL]
Androgen receptor [4]
  AC50: > 30 µM
Histamine H1 receptor [2]
  AC50: > 30 µM
Histamine H1 receptor [3]
  AC50: > 30 µM
Androgen receptor [5]
  AC50: > 30 µM

## CCCN(CCC)S(=O)(=O)c1ccc(C(=O)O)cc1 [PROBENECID]
Androgen receptor [1]
  AC50: > 10 µM

## CCC(NC(C)C)C(O)c1ccc(O)c2[nH]c(=O)ccc12 (stereo not given) [PROCATEROL]
Androgen receptor [4]
  AC50: > 30 µM
Androgen receptor [5]
  AC50: > 30 µM

## CCC(=O)O[C@](Cc1ccccc1)(c1ccccc1)[C@H](C)CN(C)C [PROPOXYPHENE]
Histamine H2 receptor
  AC50: 4.95 µM
D(4) dopamine receptor
  AC50: > 10 µM
[6]
  AC50: > 10 µM
Glucagon receptor
  AC50: > 30 µM
Progesterone receptor
  AC50: > 30 µM

## CCc1nc(N)nc(N)c1-c1ccc(Cl)cc1 [PYRIMETHAMINE]
[6]
  AC50: > 10 µM

## O=c1c(O)c(-c2ccc(O)c(O)c2)oc2cc(O)cc(O)c12 [QUERCETIN]
Histamine H2 receptor
  AC50: > 10 µM
[6]
  AC50: > 10 µM
Glucagon receptor
  AC50: > 30 µM
Progesterone receptor
  AC50: 14.1 µM

## CCN1CCCC1CNC(=O)c1cc(S(=O)(=O)CC)ccc1OC (stereo not given) [SULTOPRIDE]
Androgen receptor [4]
  AC50: > 30 µM
Histamine H1 receptor [2]
  AC50: > 30 µM
Histamine H1 receptor [3]
  AC50: > 30 µM
Androgen receptor [5]
  AC50: > 30 µM

## C=CCN1CCc2nc(N)sc2CC1 [TALIPEXOLE]
Androgen receptor [4]
  AC50: > 30 µM
[6]
  AC50: 0.98 µM
Androgen receptor [5]
  AC50: > 30 µM

## CCOC(=O)c1ccc(C#Cc2ccc3c(c2)C(C)(C)CCS3)nc1 [TAZAROTENE]
Progesterone receptor
  AC50: > 30 µM

## CCOC(=O)[C@@H](N)Cc1ccc(-c2cc(O[C@H](c3ccc(Cl)cc3-n3ccc(C)n3)C(F)(F)F)nc(N)n2)cc1 [TELOTRISTAT ETHYL]
Androgen receptor [4]
  AC50: > 30 µM
Androgen receptor [5]
  AC50: > 30 µM

## CC(C(=O)O)c1ccc2c(c1)CC(=O)c1ccccc1S2 (stereo not given) [ZALTOPROFEN]
Androgen receptor [4]
  AC50: > 30 µM
Androgen receptor [5]
  AC50: > 30 µM

## CC(c1cc2ccccc2s1)N(O)C(N)=O (stereo not given) [ZILEUTON]
Androgen receptor [1]
  AC50: > 30 µM
